Measured values: patent publication US20180193273A1, “PHARMACEUTICAL COMPOSITION COMPRISING AMLODIPINE AND DEXTROMETHORPHAN” (TSH BIOPHARM CORPORATION LTD., priority 2015, published 2018)

Tests used:
[1] = Different excipients: potency and impurity of vial samples A1 to A25 after 60° C./75% RH for 2 weeks (HPLC); type: physicochemical; settings: glass vial sample
[2] = Compatibility study: drug potency and total impurity test of vial powder mixes after storage at 60° C./75% RH for 2 weeks (HPLC); type: physicochemical; settings: glass vial powder mix

| Total impurity (%): NMT 1.00% [1] | % Potency (Amlodipine besylate) [2] | Total impurity [2] | Compound |
| --- | --- | --- | --- |
| 0.02% |  |  | CCOC(=O)C1=C(COCCN)NC(C)=C(C(=O)OC)C1c1ccccc1Cl (stereo not drawn) [Sample A1, Amlodipine besylate] |
|  | 100.2% | 0.02 | CCOC(=O)C1=C(COCCN)NC(C)=C(C(=O)OC)C1c1ccccc1Cl (stereo not drawn) [Table 1, Amlodipine besylate] |
